Drawing on patent publication US20030010621A1, “NOVEL SYNTHESIS OF PHTHALOCYANINES BY MICROWAVE IRRADIATION” (priority 2001, published 2003), this text covers solubility for two compounds.

The series in a line: Solubility of lab-made phthalocyanines in organic solvents. Format: physicochemical.

SMILES strings stand for the structures.

In the case of `[Ni+2].c1ccc2c(c1)-c1nc-2nc2[n-]c(nc3nc(nc4[n-]c(n1)c1ccccc41)-c1ccccc1-3)c1ccccc21` [NiPc], the solubility result is recorded as “◯ (slightly soluble (1 wt. % ˜ 3 wt. %))” (THF); “◯ (slightly soluble (1 wt. % ˜ 3 wt. %))” (acetone); “Δ (hardly soluble (<1 wt. %))” (methanol); “Δ (hardly soluble (<1 wt. %))” (n-hexane); “◯ (slightly soluble (1 wt. % ˜ 3 wt. %))” (toluene).
Take `[Co+2].c1ccc2c(c1)-c1nc-2nc2[n-]c(nc3nc(nc4[n-]c(n1)c1ccccc41)-c1ccccc1-3)c1ccccc21` [CoPc]: the solubility entry is, setting by setting: (THF) “◯ (slightly soluble (1 wt. % ˜ 3 wt. %))”; (acetone) “◯ (slightly soluble (1 wt. % ˜ 3 wt. %))”; (methanol) “Δ (hardly soluble (<1 wt. %))”; (n-hexane) “Δ (hardly soluble (<1 wt. %))”; (toluene) “◯ (slightly soluble (1 wt. % ˜ 3 wt. %))”.
